According to patent US20090047335A1, “Anti-angiogenic peptides and methods of use thereof” (SOPHERION THERAPEUTICS, INC., priority 2004, published 2009):
“And” between values parts separate entries of the source, which are not always exact repeats. Equal values may be shown once.

Legend:
[1] = test system: VEGF-induced angiogenesis; assay: VEGF-induced angiogenesis in Matrigel angio-reactors in FVB/N mice, FITC-dextran fluorescence; assay type: in vivo
Method: The peptides of the invention were also tested in an in vivo model of anti-angiogenic activity. This model analyzes VEGF-induced angiogenesis as it occurs in angio-reactors filled with Matrigel in wild-type FVB/N mice (Guedez et al., 2003, Am. J. Pathol. 162:1431-1439).
• Sterile, polyethene tubing (0.14 cm internal diameter) is cut to standard 1 cm lengths using a plexiglass template and single edge razor blade. These tubes are sealed at one end with nail-polish. Into the tubes, 20 μl of Matrigel (growth factor free obtained from BD Biosciences) containing 500 ng/ml VEGF with or without the indicated peptides is injected. After one hour of polymerization of the Matrigel at room temperature the angio-reactors are subcutaneously implanted into both flanks of wild-type FVB/N female mice (8-10 weeks old).
• After 10 days, angiogenesis in the angio-reactors is determined. Mice receive a 100 μl injection of 25 mg/ml of FITC-dextran in phosphate-buffered saline (PBS) via tail vein 20 minutes before collection of the angio-reactors. Quantification of vessel functionality is performed by removal of the Matrigel from the angio-reactors and the fluorescence is measured using a FLUOstar Galaxy microplate reader (excitation 485 nm, emission 520 nm, BMG Labtechnologies GmbH, Germany). The mean relative fluorescence±SD for 10 angio-reactors is determined and statistical analysis performed.

[2] = test system: human breast cancer MDA-MB231 tumor xenografts; assay: Human breast cancer MDA-MB231 tumor xenografts in nude mice: caliper and actual tumor weight, necrotic score; assay type: in vivo; settings: Docetaxel group
Method: The peptides of the invention were tested in an in vivo model of anti-tumor activity. This model compares the growth of the human breast cancer MDA-MB231 tumor xenografts in nude mice treated with 10 mg/kg or 20 mg/kg daily ip of ST100,059, docetaxel or saline.
Female nude mice (nu/nu) between 5 and 6 weeks of age weighing approximately 20 g were obtained from Harlan, Inc. Animals were implanted subcutaneously (s.c.) by trocar with fragments of human tumors harvested from s.c. grown tumors in nude mice hosts. When the tumors were approximately 60-75 mg in size (about 10-15 days following implantation), the animals were pair-matched into treatment and control groups. Each group contained 8-10 mice, each of which is ear-tagged and followed individually throughout the experiment.
The administration of drugs or controls began the day the animals were pair-matched with tumor size of about 70 mg (Day 1). Mice were weighed and tumor measurements were obtained using calipers twice weekly, starting on Day 1. These tumor measurements were converted to mg tumor weight by the standard formula, (W^2×L)/2. Upon termination of the experiment, the mice were weighed, sacrificed and their tumors were excised. The tumors were weighed, and the mean and medium tumor weight per group was calculated.
For each group, the table reports the caliper measurements and the actual tumor weights obtained as described above.

[3] = test system: bovine retinal endothelial cells (BRE); assay: VEGF mediated survival/proliferation of BRE cells, WST-1 assay, peptides added at plating (before cells adhered); assay type: cell-based; settings: VEGF 25 ng/ml, 72 h; for WST-1 induced colorimetric change measured at 440 nm, average: average of wells; for WST-1 induced colorimetric change measured at 440 nm: single wells, 1% FBS
Method: The anti-angiogenic activities of the peptides were tested by measuring the level of inhibition of VEGF mediated survival/proliferation of bovine retinal endothelial cells (BRE), a standard cell line used to test anti-angiogenic compounds. Cells were maintained in Cambrex EGM-2MV medium. On day one cells were starved for either 6 hours or overnight, and thereafter trypsinized and plated in a 96 well plate in 100 μl of Invitrogen OptiMem+1% fetal bovine serum. A 100 μl aliquot of Invitrogen OptiMem+1% fetal bovine serum was then added to the wells in addition to, where appropriate, VEGF to a final concentration of 25 ng/ml and the various peptides to final concentration of 12.5, 25, 50 and 100 μg/ml. After 72 hours incubation, the number of live cells in each well was determined using the WST-1 assay (Roche).
The experiment was repeated using higher concentrations of peptide, to a maximum concentration of 200 μg/ml. This required the addition of a substantial amount of water (the peptides are soluble in water and are maintained as stock solution of 2 mg/ml). Therefore, we tested whether the addition of water itself would have any inhibitory effects. As before, BRE were maintained in Cambrex EGM-2MV medium. On day one, cells were starved for either 6 hours or overnight, and thereafter trypsinized and plated in a 96 well plate in 100 μl of OptiMem+1% fetal bovine serum. A 100 μl aliquot of OptiMem+1% fetal bovine serum was then added to the wells, further containing, where appropriate, VEGF to a final concentration of 25 ng/ml and the various peptides to final concentration of 25, 50, 100 and 200 μg/ml. After 72 hours incubation, the amount of live cells in each well was measured using the WST-1 assay (Roche). […]

in vitro = in vitro ADME, bovine; settings: serum
Method: A stock solution of 1 mM peptide dissolved in water was made. The stock was then diluted to 100 μM in either OptiMem medium+100 units/ml of penicillin and 100 μg/ml streptomycin sulfate+1% fetal bovine serum or in OptiMem+Pen/Strep+10% fetal bovine serum. The diluted samples were placed in a 24-well tissue culture plate in an incubator at 37 degrees. Aliquots of 50-100 μl were removed at 4, 6, 18, 24, 48 and 72 hrs and frozen at −70° C. until analysis.
Samples of 20 μl were separated on a C18 reverse phase column (4.8×250 mm) with a gradient of acetonitrile/water 0.1% TFA and analyzed using a single quad mass spectrometer. Singly or multiply charged peaks were detected depending on the mass of the peptide. Peptide degradation was determined in two ways: loss of peak area in the chromatogram produced using the mass spectrometer as the detector and loss of the main peak in the mass spectrum with simultaneous appearance of a peak(s) from a breakdown product.

[4] = test system: Mouse B16-F1 melanoma cells; assay: Growth of subcutaneous B16 melanoma tumor in C57BL/6 mice; assay type: in vivo; parameters: unit not given beside the values; settings: group average, Doxorubicin group
Method: The peptides of the invention were tested in an in vivo model of anti-tumor activity. This model compares the growth of subcutaneous B16 melanoma tumor either untreated or treated with either 20 mg/kg, 40 mg/kg, 100 mg/kg daily ip doses of ST100,059.
Male C57BL/6 mice were obtained with a mean body weight of 20±2 g. Mouse B16-F1 melanoma cells were implanted subcutaneously (5×10^5 cell per animal). Peptides (formulated in water) were administered ip daily starting the day after injection of cells. Tumors became palpable around 9 days after injection of the cells. Tumors were then measured every 2 days.

[5] = experiment 2, Bonferroni's Multiple Comparison Test

| Compound | WST-1 induced colorimetric change measured at 440 nm, average ([3]; peptide 12.5 μg/ml, Table 2) | WST-1 induced colorimetric change measured at 440 nm, average ([3]; peptide 25 μg/ml, Table 2) | WST-1 induced colorimetric change measured at 440 nm, average ([3]; peptide 25 μg/ml, Table 3) | WST-1 induced colorimetric change measured at 440 nm, average ([3]; peptide 50 μg/ml, Table 2) | WST-1 induced colorimetric change measured at 440 nm, average ([3]; peptide 50 μg/ml, Table 3) | WST-1 induced colorimetric change measured at 440 nm, average ([3]; peptide 100 μg/ml, Table 2) | WST-1 induced colorimetric change measured at 440 nm, average ([3]; peptide 100 μg/ml, Table 3) | WST-1 induced colorimetric change measured at 440 nm, average ([3]; peptide 200 μg/ml, Table 3) | WST-1 induced colorimetric change measured at 440 nm ([3]; peptide 12.5 μg/ml, Table 2) | WST-1 induced colorimetric change measured at 440 nm ([3]; peptide 25 μg/ml, Table 2) | WST-1 induced colorimetric change measured at 440 nm ([3]; peptide 25 μg/ml, Table 3) | WST-1 induced colorimetric change measured at 440 nm ([3]; peptide 50 μg/ml, Table 2) | WST-1 induced colorimetric change measured at 440 nm ([3]; peptide 50 μg/ml, Table 3) | WST-1 induced colorimetric change measured at 440 nm ([3]; peptide 100 μg/ml, Table 2) | WST-1 induced colorimetric change measured at 440 nm ([3]; peptide 100 μg/ml, Table 3) | WST-1 induced colorimetric change measured at 440 nm ([3]; peptide 200 μg/ml, Table 3) | further results |
| --- | --- | --- | --- | --- | --- | --- | --- | --- | --- | --- | --- | --- | --- | --- | --- | --- | --- |
| SPWSSCSVTCGDGVITRIR (listed as Homo sapiens) [TSP616] | – | – | – | – | – | – | – | – | – | – | – | – | – | – | – | – | relative fluorescence (FITC-dextran) of angio-reactors, mean ([1]; experiment 1, group mean, VEGF + inhibitor 40 μM): 6111; Mean Diff., pbs vs inhibitor group [1, 5]: −0.5; Mean Diff., vegf vs inhibitor group [1, 5]: 2645; relative fluorescence of angio-reactors, average ([1]; experiment 2, group average): 635; relative fluorescence of angio-reactors, median ([1]; experiment 2, group median): 484 |
| CC(=O)O[C@@]12CO[C@@H]1C[C@H](O)[C@@]1(C)C(=O)[C@H](O)C3=C(C)[C@@H](OC(=O)[C@H](O)[C@@H](NC(=O)OC(C)(C)C)c4ccccc4)C[C@@](O)([C@@H](OC(=O)c4ccccc4)[C@H]21)C3(C)C [Docetaxel] | – | – | – | – | – | – | – | – | – | – | – | – | – | – | – | – | actual tumor weight, Average ([2]; group average): 1523 mg; caliper tumor weight, Average ([2]; group average): 1742.22 mg; actual tumor weight, Median ([2]; group median): 35 mg; caliper tumor weight, Median ([2]; group median): 75 mg; caliper tumor weight ([2]; individual mouse, caliper measurement converted by (W^2×L)/2, at termination): 87.5 mg and 32 mg (2×) and 48 mg and 75 mg (2×) and 288 mg and 126 mg (2×); actual tumor weight ([2]; individual mouse, excised tumor weighed): 54 mg and 10 mg and 18 mg and 26 mg and 35 mg and 225 mg and 25 mg and 82 mg and 46 mg |
| LPPHSS (listed as Homo sapiens) [ST100,037] | 0.753 | 0.708 | 0.449 | 0.643 | 0.442 | 0.694 | 0.466 | 0.386 | 0.780 and 0.730 and 0.748 | 0.716 and 0.713 and 0.695 | 0.439 and 0.432 and 0.476 | 0.636 and 0.659 and 0.633 | 0.427 and 0.438 and 0.462 | 0.692 and 0.697 and 0.694 | 0.449 and 0.486 and 0.462 | 0.384 and 0.401 and 0.372 | – |
| CC(C)C[C@H](NC(=O)[C@H](CO)NC(=O)[C@@H](NC(=O)[C@H](C)N)[C@@H](C)O)C(=O)N1CCC[C@H]1C(=O)N1CCC[C@H]1C(=O)N[C@@H](Cc1c[nH]cn1)C(=O)N[C@@H](CO)C(=O)N[C@@H](CO)C(=O)N[C@@H](CCC(N)=O)C(=O)N[C@@H](CO)C(=O)N1CCC[C@H]1C(=O)O [ST100,038, ATSLPPHSSQSP] | – | – | – | – | – | – | – | – | – | – | – | – | – | – | – | – | peptide remaining (in words) (in vitro; bovine, 18 h): none remained; metabolised at 4 h, 100 μM (in vitro): 50%; metabolised at 6 h, 100 μM (in vitro): 65%; metabolised at 18 h, 100 μM (in vitro): 25%; metabolised at 24 h, 100 μM (in vitro): 33%; metabolised at 48 h, 100 μM (in vitro): 60%; metabolised at 72 h, 100 μM (in vitro): 85% |
| LPPHSSQSP ((1)..(1) May be biotinylated; listed as Homo sapiens) [ST100,039] | 0.686 | 0.656 | 0.462 | 0.576 | 0.496 | 0.609 | 0.478 | 0.443 | 0.701 and 0.735 and 0.621 | 0.717 and 0.687 and 0.564 | 0.411 and 0.495 and 0.480 | 0.605 and 0.593 and 0.530 | 0.489 and 0.507 and 0.491 | 0.659 and 0.588 and 0.581 | 0.451 and 0.517 and 0.465 | 0.416 and 0.453 and 0.459 | – |
| COc1cccc2c1C(=O)c1c(O)c3c(c(O)c1C2=O)C[C@@](O)(C(=O)CO)C[C@@H]3O[C@H]1C[C@H](N)[C@H](O)[C@H](C)O1 [Doxorubicin] | – | – | – | – | – | – | – | – | – | – | – | – | – | – | – | – | subcutaneous B16 melanoma tumor measurement, Average ([4]; Day 11): 213.41; subcutaneous B16 melanoma tumor measurement, Average ([4]; Day 13): 419.71; subcutaneous B16 melanoma tumor measurement, Average ([4]; Day 15): 744.61; subcutaneous B16 melanoma tumor measurement, Average ([4]; Day 16): 1261.33 |
